Data published in ChEMBL document CHEMBL1140713, “2,3-dihydro-6,7-dihydroxy-1H-isoindol-1-one-based HIV-1 integrase inhibitors” (J Med Chem, 2008).
pEC50, pIC50: −log10 of the molar value.

Key:
[1] = biological target: T1, Human immunodeficiency virus type 1 integrase (Human immunodeficiency virus 1, UniProt Q7ZJM1); experiment: Inhibition of recombinant HIV1 integrase strand transfer activity in presence of magnesium
[2] = biological target: T1, Human immunodeficiency virus type 1 integrase; experiment: Inhibition of recombinant HIV1 integrase-mediated 3'-processing activity in presence of magnesium
[3] = biological target: T1, Human immunodeficiency virus type 1 integrase; experiment: Inhibition of recombinant HIV1 integrase-mediated 3'-processing activity in presence of manganese
[4] = biological target: T1, Human immunodeficiency virus type 1 integrase; experiment: Inhibition of recombinant HIV1 integrase strand transfer activity in presence of manganese
[5] = test system: Human immunodeficiency virus 1; experiment: Antiviral activity against HIV1 in cell based assay; format: functional, organism-based

T1 sequence (Q7ZJM1 whole entry): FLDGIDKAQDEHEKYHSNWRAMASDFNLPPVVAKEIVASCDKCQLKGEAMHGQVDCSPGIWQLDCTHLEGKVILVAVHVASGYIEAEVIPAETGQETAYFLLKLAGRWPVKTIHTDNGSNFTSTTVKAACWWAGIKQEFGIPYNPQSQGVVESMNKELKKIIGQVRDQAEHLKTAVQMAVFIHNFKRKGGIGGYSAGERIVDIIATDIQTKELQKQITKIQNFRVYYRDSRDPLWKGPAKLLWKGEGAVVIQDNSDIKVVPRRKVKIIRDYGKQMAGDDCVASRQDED

Row | SMILES | pIC50 [1] | pIC50 [2] | pIC50 [3] | pIC50 [4] | pEC50 [5]
1 | O=C1c2c(ccc(O)c2O)CN1N1C(=O)c2cc(O)c(O)cc2C1=O | 6.09 | 5.17 | – | – | –
2 | O=C(NN1Cc2ccc(O)c(O)c2C1=O)c1ccc(F)cc1 | 3.77 | < 3.48 | – | – | –
3 | COc1cccc(C(=O)NNC(=O)c2cc3ccccc3cc2O)c1O | < 3.48 | < 3.48 | 4.92 | 5.10 | –
4 | O=C1c2c(ccc(O)c2O)CN1N1C(=O)c2ccc(F)cc2C1=O | 4.28 | 3.73 | – | – | –
5 | O=C1c2c(ccc(O)c2O)CN1Cc1ccc(F)c(Cl)c1 | 6.80 | 4.89 | – | – | –
6 | O=C(NN1Cc2ccc(O)c(O)c2C1=O)c1ccccc1O | 3.53 | < 3.48 | – | – | –
7 | NNC(=O)c1cccc(O)c1O | < 3.48 | < 3.48 | < 3.48 | 3.95 | –
8 | COc1cccc(C(=O)NNC(=O)c2cccnc2)c1O | < 3.48 | < 3.48 | < 3.48 | < 3.48 | –
9 | O=C1c2c(ccc(O)c2O)CN1N1Cc2ccc(O)c(O)c2C1=O | 4.39 | 3.91 | – | – | –
10 | COc1cccc(C(=O)NNC(=O)c2cccc(OC)c2O)c1O | 3.91 | 3.61 | 4.59 | 4.66 | –
11 | O=C(NCc1ccc(F)cc1)c1cccc(O)c1O | 3.97 | < 3.48 | – | – | < 4.52
12 | O=C(NNC(=O)c1ccccc1O)c1ccccc1O | < 3.48 | < 3.48 | 5.44 | 5.74 | 5.66
13 | O=C1c2c(ccc(O)c2O)CN1N1Cc2ccc(O)c(O)c2S1(=O)=O | 5.92 | 5.15 | – | – | –
14 | O=C(N/N=C/c1cccc(O)c1O)c1cccc(O)c1O | 4.27 | 4.21 | 4.96 | 5.89 | –
15 | O=C1c2c(ccc(O)c2O)CN1N(S(=O)(=O)c1ccc(O)c(O)c1)S(=O)(=O)c1ccc(O)c(O)c1 | 6.68 | 5.80 | – | – | –
16 | O=C1c2c(ccc(O)c2O)CN1Cc1cccc(Cc2ccccc2)c1 | 3.76 | < 3.48 | – | – | –
17 | COc1cccc(/C=N/NC(=O)c2cccc(O)c2O)c1OC | 4.17 | 3.95 | < 3.48 | 4.74 | –
18 | O=C1c2c(ccc(O)c2O)CN1Cc1cccc2ccccc12 | 6.13 | 4.21 | – | – | –
19 | O=C1c2ccc(O)c(O)c2CN1Cc1ccc(F)cc1 | < 3.48 | < 3.48 | – | – | –
20 | O=C1c2c(ccc(O)c2O)CN1N1C(=O)c2cccc(O)c2C1=O | 4.96 | 4.38 | – | – | –
21 | O=C1c2c(ccc(O)c2O)CN1N1C(=O)c2ccccc2C1=O | < 3.48 | < 3.48 | – | – | –
22 | O=C(NNC(=O)c1cccc(O)c1O)c1cccc(O)c1O | 5.80 | 5.16 | 5.05 | 5.30 | 5.78

Row | SMILES | pIC50 [1] | pIC50 [2] | pIC50 [3] | pIC50 [4] | pEC50 [5]
23 | COc1cccc(C(=O)N/N=C/c2ccc(F)cc2)c1O | < 3.48 | < 3.48 | – | – | –
24 | O=C1c2c(ccc(O)c2O)CN1Cc1ccccc1 | 4.91 | < 3.48 | – | – | 6.17
25 | O=C(NN1Cc2ccc(O)c(O)c2C1=O)c1cccc(O)c1O | 5.22 | < 3.48 | – | – | –
26 | O=C(NNC(=O)c1cccc(O)c1O)c1cccnc1 | < 3.48 | < 3.48 | < 3.48 | 3.95 | –
27 | O=C1c2c(ccc(O)c2O)CN1/N=C/c1ccc(F)cc1 | < 3.48 | < 3.48 | – | – | –
28 | O=C1c2c(ccc(O)c2O)CN1/N=C/c1cccc(O)c1O | 4.27 | 4.06 | – | – | –
29 | O=C(NCCNC(=O)c1cccc(O)c1O)c1cccc(O)c1O | 4.30 | 4.07 | – | – | –
30 | O=C1c2cccc(O)c2C(=O)N1Cc1ccc(F)cc1 | < 3.48 | < 3.48 | – | – | –
31 | O=C1c2c(ccc(O)c2O)CN1Cc1cccc(CBr)c1 | 4.89 | 4.43 | – | – | –
32 | O=C(NNC(=O)c1cccc(O)c1O)c1cc2ccccc2cc1O | 4.49 | 4.14 | 4.72 | 4.80 | –
33 | O=C1c2c(ccc(O)c2O)CN1CCc1ccccc1 | 4.55 | < 3.48 | – | – | –
34 | COc1cccc(C(=O)NNC(=O)c2cccc(O)c2O)c1O | 4.36 | 3.86 | 4.96 | 5.05 | –
35 | O=C1c2c(ccc(O)c2O)CN1Cc1ccc(F)cc1 | 5.00 | 3.55 | – | – | 6.11
36 | COc1cccc(C(=O)NN)c1O | < 3.48 | < 3.48 | < 3.48 | < 3.48 | –
37 | O=C(NCCCNC(=O)c1cccc(O)c1O)c1cccc(O)c1O | 4.51 | 4.48 | – | – | –
38 | O=C(NNC(=O)c1cccc(O)c1O)c1ccccc1O | < 3.48 | < 3.48 | 5.55 | 6.30 | 5.32
39 | O=C1c2c(ccc(O)c2O)CN1NS(=O)(=O)c1ccc(F)cc1 | 4.68 | 4.16 | – | – | –
40 | O=C(NN1Cc2ccc(O)c(O)c2C1=O)c1ccccc1 | 3.89 | < 3.48 | – | – | –
41 | O=C1c2c(ccc(O)c2O)CN1N(S(=O)(=O)c1ccc(F)cc1)S(=O)(=O)c1ccc(F)cc1 | 4.48 | < 3.48 | – | – | –
42 | O=C1c2c(ccc(O)c2O)CN1N1C(=O)c2ccc(O)c(O)c2C1=O | 6.22 | 4.11 | – | – | –
43 | COc1cccc(C(=O)NCc2ccc(F)cc2)c1O | < 3.48 | < 3.48 | – | – | –
